Data published in patent US9113629B2, “4-amino-6-(4-substituted-phenyl)-picolinates and 6-amino-2-(4-substituted-phenyl)-pyrimidine-4-carboxylates and their use as herbicides” (DOW AGROSCIENCES LLC, priority 2013, dated 2015).
Like-named read-outs stand apart in the source and are kept apart here.

Key:
[1] = tested on: Key Broadleaf Weed and Crop Species; test: Post-emergent Test II herbicidal activity (Table 5); format: in vivo; settings: post-emergence, 336 h, 14 days after application; for pest or weed control at 70 g/ha: application rate 70 g ai/ha; for pest or weed control at 140 g/ha: application rate 140 g ai/ha
In short: (§1)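 Plants grown in Metro-Mix 360 (pH 6.0–6.8) in a greenhouse (~15 h photoperiod, 23–29 °C day) to first or second true leaf stage, then sprayed with compound in acetone/DMSO/aqueous crop-oil-surfactant carrier at 187 L/ha by track sprayer. Injury visually scored 0–100% versus untreated plants after 14 d.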

[2] = tested on: Key Grass and Sedge Weeds as well as Grass Crops; test: Post-emergent Test II herbicidal activity (Table 6); format: in vivo; settings: post-emergence, 336 h; for pest or weed control at 70 g/ha: 70 g ai/ha; for pest or weed control at 140 g/ha: 140 g ai/ha
In short: as §1

[3] = ABUTH: velvetleaf (Abutilon theophrasti), read-out: Visual Growth Reduction (%) 14 Days After Application, ABUTH
[4] = AMARE: redroot pigweed (Amaranthus retroflexus), read-out: Visual Growth Reduction (%) 14 Days After Application, AMARE
[5] = BRSNN: oilseed-rape, canola (Brassica napus), read-out: Visual Growth Reduction (%) 14 Days After Application, BRSNN
[6] = CHEAL: lambsquarters (Chenopodium album), read-out: Visual Growth Reduction (%) 14 Days After Application, CHEAL
[7] = EPHHL: wild poinsettia (Euphorbia heterophylla), read-out: Visual Growth Reduction (%) 14 Days After Application, EPHHL
[8] = HELAN: sunflower (Helianthus annuus), read-out: Visual Growth Reduction (%) 14 Days After Application, HELAN
[9] = VIOTR: wild pansy (Viola tricolor), read-out: Visual Growth Reduction (%) 14 Days After Application, VIOTR
[10] = CYPES: yellow nutsedge (Cyperus esculentus), read-out: Visual Growth Reduction (%) 14 Days After Application, CYPES
[11] = DIGSA: crabgrass (Digitaria sanguinalis), read-out: Visual Growth Reduction (%) 14 Days After Application, DIGSA
[12] = ECHCG: barnyardgrass (Echinochloa crus-galli), read-out: Visual Growth Reduction (%) 14 Days After Application, ECHCG
[13] = ORYSA: rice (Oryza sativa), crop, read-out: Visual Growth Reduction (%) 14 Days After Application, ORYSA
[14] = SORVU: grain sorghum (Sorghum vulgare), read-out: Visual Growth Reduction (%) 14 Days After Application, SORVU
[15] = TRZSS (wheat, Triticum aestivum), crop, read-out: Visual Growth Reduction (%) 14 Days After Application, TRZSS
[16] = ZEAMX: maize, corn (Zea mays), crop, read-out: Visual Growth Reduction (%) 14 Days After Application, ZEAMX

Work on `COC(=O)c1nc(-c2ccc(Br)c(F)c2F)nc(N)c1OC` [Compound 122, methyl 6-amino-2-(4-bromo-2,3-difluorophenyl)-5-methoxypyrimidine-4-carboxylate] yielded a pest or weed control at 70 g/ha [1, 3] of 95 to 100%, a pest or weed control at 140 g/ha [1, 3] of 95 to 100% and a pest or weed control at 70 g/ha [1, 4] of 95 to 100%. For the same molecule, the pest or weed control at 140 g/ha [1, 4] was 95 to 100%, the pest or weed control at 70 g/ha [1, 5] was 95 to 100% and the pest or weed control at 140 g/ha [1, 5] was 95 to 100%. The pest or weed control at 70 g/ha [1, 6] was 95 to 100%, the pest or weed control at 140 g/ha [1, 6] was 95 to 100% and the pest or weed control at 70 g/ha [1, 7] was 95 to 100%. It also gave a pest or weed control at 140 g/ha [1, 7] of 95 to 100%, a pest or weed control at 70 g/ha [1, 8] of 85 to 94% and a pest or weed control at 140 g/ha [1, 8] of 95 to 100%. The pest or weed control at 70 g/ha [1, 9] was 95 to 100%, the pest or weed control at 140 g/ha [1, 9] was 85 to 94% and the pest or weed control at 70 g/ha [2, 10] was 95 to 100%. The pest or weed control at 140 g/ha [2, 10] was 95 to 100%, the pest or weed control at 70 g/ha [2, 11] was 45 to 59% and the pest or weed control at 140 g/ha [2, 11] was 45 to 59%. The pest or weed control at 70 g/ha [2, 12] was 85 to 94%, the pest or weed control at 140 g/ha [2, 12] was 95 to 100% and the pest or weed control at 70 g/ha [2, 13] was 0 to 29%. It also gave a pest or weed control at 140 g/ha [2, 13] of 0 to 29%, a pest or weed control at 140 g/ha ([2]; SETFA: giant foxtail (Setaria faberi), read-out: Visual Growth Reduction (%) 14 Days After Application, SETFA) of 95 to 100% and a pest or weed control at 70 g/ha [2, 14] of 95 to 100%. The pest or weed control at 140 g/ha [2, 14] was 85 to 94%, the pest or weed control at 70 g/ha [2, 15] was 45 to 59% and the pest or weed control at 140 g/ha [2, 15] was 45 to 59%. For the same molecule, the pest or weed control at 70 g/ha [2, 16] was 95 to 100%, the pest or weed control at 140 g/ha [2, 16] was 95 to 100% and the melting point was 171 to 172 °C.
